Legend:
[1] = test system: permanent focal cerebral ischaemia in the rat (MCA-O); experiment: Permanent focal cerebral ischaemia in the rat (MCA-O); type: in vivo; settings: 0.01 mg/kg/h intravenous continuous infusion directly up to 4 hours after the occlusion, infarct size determined after 7 days
Method: Permanent Focal Cerebral Ischaemia in the Rat (MCA-O)
Under isoflurane anaesthesia, the middle cerebral artery is exposed on one side and the latter and its side branches are irreversibly sealed by means of electrocoagulation. As a result of the intervention a cerebral infarct is formed. During the operation, the body temperature of the animal is kept at 37° C. After wound closure and wearing off of the anaesthesia, the animals are again released into their cage. Substance administration is carried out according to different time schemes and via different administration routes (i.v., i.p.) after occlusion. The infarct size is determined after 7 days. To do this, the brain is removed, worked up histologically and the infarct volume is determined with the aid of a computer-assisted analysis system.

[2] = test system: subdural haematoma in the rat (SDH); experiment: Subdural haematoma in the rat (SDH); type: in vivo; settings: 0.01 mg/kg/h intravenous continuous infusion directly up to 4 hours post-trauma
Method: Subdural Haematoma in the Rat (SDH)
Under anaesthesia, the animal's own blood is injected subdurally on one side. An infarct is formed under the haematoma. Substance administration is earned out according to different time schemes and via different administration routes (i.v., i.p.).
The determination of the infarct size is carried out as described in the model of permanent focal ischaemia in the rat (MCA-O).

## C=C1C[C@@H]2COC(=O)[C@]2(Cc2ccc3ccccc3c2)C1 [Example 35]
[1]
  % reduction of infarct volume: 38%
[2]
  % reduction of infarct volume: 51%

Reference: patent publication US6723718B2, “Substituted α, β-anellated butyrolactones” (Bayer Aktiengesellschaft, priority 1998, dated 2004)
